Test results: patent US8110577B2, “Histone deacetylase inhibitors” (Queen Mary & Westfield College, priority 2006, dated 2012)
Where two headings read alike, the source gives them in different places. One block for each compound: values may come before it.

How the values were obtained:
[1] = target: Partially purified HDAC enzyme (liver prep); experiment: HDAC activity assay (MAL deacetylation, HPLC) with partially purified liver HDAC; type: biochemical, rat
Source text: The activity of compounds as inhibitors of histone deacetylase was investigated using a modified procedure based on a rapid in vitro HDAC activity assay (HDAC mediated deacetylation of an Ω-acetylated lysine (MAL)) as described by Hoffman et al in Nucl. Acids. Res. 27 2057-2058 (1999).
The HDAC substrate N-(-4-methyl-7-coumarinyl)-N-α-(tert-butyloxy-carbonyl)-N-Ω abbreviated as MAL was synthesised as described (Hoffman et al 1999). HDAC inhibitors and substrate (MAL) were made up in Hepes buffer (50 mM, pH 7.4). Partially purified HDAC enzyme (liver prep, 100 μL), HDAC inhibitor or Hepes buffer (100 μl), substrate (MAL, 100 μL 5 μg/mL) and assay buffer (100 μL, tris-HCl (10 mM), NaCl (10 mM), MgCl2 (15 mM), EGTA (0.1 mM), 10% (v/v) glycerol, and mercaptoethanol (0.007%)) were incubated at 37° C. for 60 minutes. The reaction was terminated with 100 μl acetonitrile, and MAL and the deacetylated product (ML) were determined in the supernatant.
(§1) Chromatographic separation of MAL and ML was carried out using a 15 cm Apex ODS […] column with acetonitrile/distilled water (40:60), 2% trifluoracetic acid (TFA) v/v mobile phase at a flow rate of 1.2 ml/minute. MAL and ML were quantified by fluorescence detection at excitation/emission wavelengths of 330/395 nm.
(§2) The activity of each inhibitor was assessed at a minimum of 5 non-zero concentrations. MAL and ML peak heights were used to derive the percentage MAL in the mixture as the ration of MAL: MAL+ML.
HDAC inhibitory activity against cell-free HDACs isolated from rat liver was determined using the HPLC method.

[2] = system: Cell-free (CEM cells) HDAC; experiment: Cell-free (CEM cells) HDAC inhibitory activity, fluorescent commercial kit (Upstate Cell Signaling); type: biochemical
Source text: HDAC inhibitory activity has also been determined using a fluorescent commercial kit method (Upstate Cell Signaling).

[3] = system: MCF7 (breast cancer) tumours; experiment: MCF7 xenograft study in nude mice; type: in vivo; settings: 15 day treatment, FIG. 6
Protocol: Xenograft studies were carried out with MCF7 cells implanted under the skin on the flank of female nude mice (5-8 weeks of age). […] Animals also received a 2 mg oestrogen pellet as an implant on the day of tumour implantation. Tumour volumes were determined from measurements of 2 diameters carried out every other day out to day 15 of treatment.

[4] = system: acetylated histone H3 in MCF-7 cells; experiment: Histone H3 acetylation in MCF7 cells (protein blot); type: cell-based; settings: for histone H3 acetylation with time: FIG. 5; for change in histone H3 acetylation: 2 hour exposure to increasing concentrations, FIG. 4
Protocol: The effect of the compounds on the acetylation of histone H3 was investigated in MCF-7 cells. Briefly cells were treated with a range of concentration of specific inhibitor or different exposure durations. Cells were then lysed and the proteins resolved by polyacrylamide electrophoresis prior to blotting onto a nitrocellulose membrane and staining with an antibody specific for the protein under study (acetylated histone H3) and a control protein (β-actin). As HDAC inhibitors reduce deacetylase activity, treatment of intact cells results in the accumulation of acetylated histones.

CEM (leukaemic) cells = experiment: Cell viability / cytotoxic activity, ATP Vialite assay, CEM cells; type: cell-based; settings: Homo sapiens, CCRF-CEM
Protocol: (§3) EC50 values for percentage viability (3-day exposure) were determined using 2 different methods, trypan blue staining and an ATP assay. Trypan blue staining relies on the ability of healthy cells with intact membranes to exclude dyes. As cells start to undergo programmed cell death membrane integrity becomes compromised allowing dye entry. The % cells staining positive for trypan blue relative to the total cell number therefore reflects % cell viability (% viability). Non-viable cells also lose the ability to regenerate ATP. A specific ATP assay procedure using a 96-well plate-based approach (Vialite assay, Cambrex, UK) also measures cell viability, expressed relative to the ATP value in the control (untreated) cell population.
Effects against viable cell number have been determined using the ATP Vialite kit method (Cambrex, UK).

[5] = system: HDAC activity in intact CEM cells; experiment: Whole cell HDAC activity assay (MAL) in intact CEM cells; type: cell-based; settings: FIG. 2, read-out: HDAC inhibitory values in intact CEM cells
Protocol: Cells were then rapidly washed at 4° C., lysed by sonication, the reaction stopped with acetonitrile, and MAL and the deacetylated product determined in the supernatant by rapid HPLC.
as §1, §2

[6] = system: HCT116 (colorectal cancer) cells; experiment: Cell viability, 3-day exposure, HCT116 cells; type: cell-based; settings: Homo sapiens, HCT-116, 72 h, 3 day incubation, FIG. 3
Protocol: as §3

[7] = system: MCF7 (breast cancer) cells; experiment: Cell viability, 3-day exposure, MCF7 cells; type: cell-based; settings: Homo sapiens, 72 h, 3 day incubation, FIG. 3
Protocol: as §3

[8] = system: panel of 8 lymphoma cell lines; experiment: Cell viability (ATP) in a panel of 8 lymphoma cell lines; type: cell-based; settings: ATP endpoint assay, read-out: EC50 values (range over the panel)
Protocol: as §3

[9] = cell-free HDACs isolated from rat liver, HPLC method, different liver preparation than Example 1, read-out: HDAC inhibitory IC50

IC50 [1, 9]: 44600 ± 5600 nM
IC50 [2]: 46100 ± 12000 nM
SMILES: Cc1nsc(C(CCCCCC(=N)NO)C(=O)Nc2ccccc2)n1 (stereo not drawn) [67022,19, 7-(N-Hydroxycarbamimidoyl)-2(3-methyl[1,2,4]thiadiazol-5-yl)heptanoic Acid Phenylamide]

IC50 [1, 9]: 318000 nM
SMILES: Cc1nsc(C(CCCCCC(N)=S)C(=O)Nc2ccccc2)n1 (stereo not drawn) [67022,20, 2-(3-Methyl-[1,2,4]thiadiazol-5-yl)-7-thiocarbamoylheptanoic Acid Phenylamide]

SMILES: O=C(CCCCCCC(=O)Nc1ccccc1)NO [SAHA, suberoylanilide hydroxamic acid, reference compound]
effect on tumour growth ([3]; daily IP 25 mg/kg in DMSO): not very different to treatment with the DMSO vehicle alone
histone H3 acetylation with time ([4]; 3 μM SAHA, time periods up to 48 hours): acetylation increased up to 6 hours, but had decreased to baseline levels by 24 hours
change in histone H3 acetylation [4]: relatively minor changes in acetylation state at concentrations <1.0 μM

IC50 [5]: 110 ± 20 nM
EC50 [6]: 70 nM
IC50 [1, 9]: 40 ± 9 nM
IC50 ([1]; partially purified rat liver preparation, Example 1, FIG. 1, read-out: HDAC inhibitory activity IC50): 50 ± 10 nM
IC50 [2]: 86 ± 7 nM
EC50 [7]: 130 nM
EC50 [8]: 20 to 80 nM
SMILES: O=C(CCCCCC(C(=O)Nc1ccccc1)C(=O)Nc1ccccc1)NO [UCL67022, 2-Phenylcarbamoyl-octanedioic acid 8-hydroxyamide 1-phenylamide]
effect on tumour growth ([3]; daily IP dose levels 12.5·M and 6.25·M): appeared to have a clear effect on tumour growth
EC50 (CEM (leukaemic) cells; 72 h, CEM cells, 3 day incubation, FIG. 3): 60 nM
IC50 (CEM (leukaemic) cells; cytotoxic activity against CEM (leukaemic) cells, viable cell number, ATP Vialite kit, read-out: HDAC inhibitory IC50): 98 ± 42 nM
histone H3 acetylation with time ([4]; 0.3 μM UCL67022, time periods up to 48 hours): acetylation continued to increase out to 24 hours, and was still substantially higher than baseline at 48 hours
change in histone H3 acetylation [4]: marked change in histone H3 acetylation at concentrations as low as 0.1 μM
